According to patent US20100055032A1, “METHODS FOR […] IMAGING USING NANOP[…] AGENTS” (NanoScan Imaging LLC, priority 2001, published 2010):

Assay: Particle size of the nanoparticle
Type: physicochemical
Details: iodinated nanoparticle, 15% (w/v)

SMILES: CCOC(=O)CCCCCOC(=O)c1c(I)c(NC(C)=O)c(I)c(NC(C)=O)c1I [PH-50, 6-ethoxy-6-oxohexy-3,5-bis(acetylamino)-2,4,6-triiodobenzoate]
- mean diameter: 282 nm
